The target of one series is T1, substance P receptor (Homo sapiens, UniProt P25103).
T1 construct: The receptor was prepared from human lymphoblast cells (IM-9); endogenous in cells; host or cells: IM-9 human lymphoblast cells (membrane preparation)
The series can be described thus: Radioligand receptor binding inhibitory activity using receptor from human lymphoblast cells (IM-9). The settings on record: 125I-BHSP radioligand, receptor from IM-9 cells, 25° C. for 30 minutes. As for the experimental part: Radioligand receptor binding inhibitory activity Binding inhibitory activity using receptor from human lymphoblast cells (IM-9)
The receptor was prepared from human lymphoblast cells (IM-9). IM-9 cells (2×10^5 cells/ml) were inoculated and incubated for 3 days (one liter), which was then subjected to centrifuge for 5 minutes at 500×g to obtain cell pellets. […] The residue was washed twice with 30 ml of the above-mentioned buffer, which was then preserved frozen (−80° C.) as a specimen of the receptor.
The specimen was suspended in a reaction buffer (50 mM Tri-HCl buffer (pH 7.4), 0.02% bovine serum albumin, 1 mM phenylmethylsulfonyl fluoride, […], […] bacitracin, 3 mM manganese chloride) and 100 ul portion was the suspension was used in the reaction. […] The amount of nonspecific binding was determined by adding substance P at a final concentration of 2×10^−6M. After the reaction, using a cell harvester (290 PHD, Cambridge Technology, Inc, U.S.A.), rapid filtration was carried out through a glass filter (GF/B, Whatman, U.S.A.) to stop the reaction. After washing three times with 250 ul of 50 mM of Tris-HCl buffer (pH 7.4) containing 0.02% bovine serum albumin, the radioactivity remaining on the filter was determined with a gamma counter. Before use, the filter was immersed in 0.1% polyethyleneimine for 24 hours and air-dried.

This is an account of results in US20020132817A1, “Heterocyclic compounds, their production and use” (priority 1998, published 2002).

In general, IC50 refers to the concentration needed to halve the response being measured. A word on the melting point: it is the temperature of the solid-liquid transition.

T1 sequence (P25103 whole entry): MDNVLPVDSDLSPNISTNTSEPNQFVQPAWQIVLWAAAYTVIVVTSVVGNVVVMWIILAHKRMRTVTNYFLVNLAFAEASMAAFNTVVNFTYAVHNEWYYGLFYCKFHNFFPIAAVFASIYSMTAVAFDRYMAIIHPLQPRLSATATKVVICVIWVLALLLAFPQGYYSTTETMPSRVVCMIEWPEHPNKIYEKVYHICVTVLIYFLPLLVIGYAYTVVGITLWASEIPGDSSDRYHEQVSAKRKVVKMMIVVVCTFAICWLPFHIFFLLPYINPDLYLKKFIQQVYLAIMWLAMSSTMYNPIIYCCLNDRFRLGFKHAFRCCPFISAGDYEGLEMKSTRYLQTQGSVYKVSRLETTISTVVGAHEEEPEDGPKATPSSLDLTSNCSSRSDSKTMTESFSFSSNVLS

As to `C[C@@H]1CCn2c(c(-c3ccc(Cl)cc3)c3cccnc3c2=O)C(=O)N(Cc2cc(C(F)(F)F)cc(C(F)(F)F)c2)C1` [Example 6, (9R)-7-[3,5-bis(trifluoromethyl)benzyl]-5-(4-chlorophenyl)-6,7,8,9,10,11-hexahydro-9-methyl-6,13-dioxo-13H-[1,4]diazosino[2,1-g][1,7]napththylidine], at substance P receptor, the IC50 amounted to 130 pM.
`Cc1cnc2c(c1-c1ccccc1)C(=O)N(Cc1cc(C(F)(F)F)cc(C(F)(F)F)c1)C[C@H](C)CO2` [Reference Example 85, (S)-5-[3,5-Bis(trifluoromethyl)benzyl]-2,3,4,5-tetrahydro-3,8-dimethyl-6-oxo-7-phenyl-6H-pyrido[2,3-b][1,5]oxazocine] had a melting point of 147 to 148 °C. Moreover, the IC50 on substance P receptor turned out to be 360 pM.
For `COc1cc(CN2C[C@H](C)CCn3c(c(-c4ccccc4)c4cccnc4c3=O)C2=O)cc(OC)c1` [Example 5, (9R)-7-(3,5-dimethoxybenzyl)-6,7,8,9,10,11-hexahydro-9-methyl-6,13-dioxo-5-phenyl-13H-[1,4]diazosino[2,1-g][1,7]napththylidine] the same measures were 199 to 201 °C and 480 pM.
For the molecule `CCOc1cc(CN2C[C@H](C)CCn3c(c(-c4ccc(C)cc4)c4cccnc4c3=O)C2=O)cc(OCC)c1` [Example 3, (9R)-7-(3,5-diethoxybenzyl)-6,7,8,9,10,11-hexahydro-9-methyl-5-(4-methylphenyl)-6,13-dioxo-13H-[1,4]diazosino[2,1-g][1,7]napththylidine], the IC50 at substance P receptor is 690 pM.
With `Cc1ccc(-c2c3n(c(=O)c4ncccc24)CC[C@@H](C)CN(Cc2cc(Cl)cc(Cl)c2)C3=O)cc1` [Example 10, (9R)-7-(3,5-dichlorobenzyl)-6,7,8,9,10,11-hexahydro-9-methyl-5-(4-methylphenyl)-6,13-dioxo-13H-[1,4]diazosino[2,1-g][1,7]napththylidine], the melting point is 139 to 141 °C. For the same molecule, the IC50 on substance P receptor is 1000 pM.
Molecule `COc1cc(CN2C[C@H](C)CCn3c(c(-c4ccc(Cl)c(Cl)c4)c4cccnc4c3=O)C2=O)cc(OC)c1` [Example 8, (9R)-7-(3,5-dimethoxybenzyl)-5-(3,4-dichlorophenyl)-6,7,8,9,10,11-hexahydro-9-methyl-6,13-dioxo-13H-[1,4]diazosino[2,1-g][1,7]napththylidine] registered a melting point of 207 to 208 °C. Besides, the 50% inhibitory concentration (IC50) on substance P receptor was found to be 50 pM.
The molecule `COc1cc(CN2C[C@H](C)CCn3c(c(-c4ccc(F)cc4)c4cccnc4c3=O)C2=O)cc(OC)c1` [Example 12, (9R)-7-(3,5-dimethoxybenzyl)-5-(4-fluorophenyl)-6,7,8,9,10,11-hexahydro-9-methyl-6,13-dioxo-13H-[1,4]diazosino[2,1-g][1,7]napththylidine] showed a melting point of 192 to 193 °C. In addition, at substance P receptor, the IC50 is 1500 pM.
Turning to `CC(=O)OCc1cc(-c2ccccc2)c2c(n1)OCCCN(Cc1cc(C(F)(F)F)cc(C(F)(F)F)c1)C2=O` [Reference Example 92, 9-Acetoxymethyl-5-[3,5-bis(trifluoromethyl)benzyl]-2,3,4,5-tetrahydro-6-oxo-7-phenyl-6H-pyrido[2,3-b][1,5]oxazocine], the melting point is 156 to 157 °C. Further, on substance P receptor, the IC50 amounted to 740 pM.
On to `C[C@@H]1CCn2c(c(-c3ccc(F)cc3)c3cccnc3c2=O)C(=O)N(Cc2cc(C(F)(F)F)cc(C(F)(F)F)c2)C1` [Example 14, (9R)-7-[3,5-bis(trifluoromethyl)benzyl]-5-(4-fluorophenyl)-6,7,8,9,10,11-hexahydro-9-methyl-6,13-dioxo-13H-[1,4]diazosino[2,1-g][1,7]napththylidine], for which, on substance P receptor, the IC50 stood at 370 pM.
`COCc1cc(-c2ccccc2)c2c(n1)OCCN(Cc1cc(C(F)(F)F)cc(C(F)(F)F)c1)C2=O` [Reference Example 94, 4-[3,5-Bis(trifluoromethyl)benzyl]-2,3,4,5-tetrahydro-8-methoxymethyl-5-oxo-6-phenylpyrido[3,2-f][1,4]oxazepine] had a melting point of 139 to 140 °C. The IC50 at substance P receptor came to 170 pM.
Regarding `COc1cc(CN2C[C@H](C)CCn3c(c(-c4ccc(Cl)cc4)c4cccnc4c3=O)C2=O)cc(OC)c1` [Example 13, (9R)-5-(4-chlorophenyl)-7-(3,5-dimethoxybenzyl)-6,7,8,9,10,11-hexahydro-9-methyl-6,13-dioxo-13H-[1,4]diazosino[2,1-g][1,7]napththylidine], the melting point fell in the range of 229 to 230 °C. Also, the IC50 at substance P receptor was found to be 1100 pM.
For `Cc1ccc(-c2c3c(c(=O)n4c2C(=O)N(Cc2cc(C(F)(F)F)cc(C(F)(F)F)c2)CCCC4)CN(C)CC3)cc1` [Reference Example 64, 7-[3,5-Bis(trifluoromethyl)benzyl]-1,2,3,4,6,7,8,9,10,11-decahydro-2-methyl-5-(4-methylphenyl)-6,13-dioxo-13H-[1,4]diazocino[1,2-b][2,7]naphthyridine], the IC50 on substance P receptor amounted to 660 pM.
The same measure, in the same setting: the result for `Cc1cnc2c(c1-c1ccccc1)C(=O)N(Cc1cc(C(F)(F)F)cc(C(F)(F)F)c1)CCCO2` [Reference Example 78] reads 1600 pM.
On to `Cc1ccc(-c2c3n(c(=O)c4ncccc24)CCN(Cc2cc(C(F)(F)F)cc(C(F)(F)F)c2)C3=O)cc1` [Reference Example 55, 7-[3,5-Bis(trifluoromethyl)benzyl]-6,7,8,9-tetrahydro-5-(4-methylphenyl)-6,11-dioxo-11H-pyrazino[2,1-g][1,7]naphthyridine], for which the melting point was in the range of 270 to 271 °C.
`Cc1cnc2c(c1-c1ccccc1)C(=O)N(Cc1cc(C(F)(F)F)cc(C(F)(F)F)c1)CCCN(C)C2=O` [Reference Example 108, 6-[3,5-Bis(trifluoromethyl)benzyl]-6,7,8,9,10,11-hexahydro-3,10-dimethyl-5,11-dioxo-4-phenyl-5H-pyrido[2,3-g][1,5]diazonine] registered a melting point of 247 to 249 °C.
`Cc1ccc(-c2c3n(c(=O)c4ncccc24)CC[C@H](C)CN(Cc2cc(C(F)(F)F)cc(C(F)(F)F)c2)C3=O)cc1` [Reference Example 74, (9S)-7-[3,5-Bis(trifluoromethyl)benzyl]-6,7,8,9,10,11-hexahydro-9-methyl-5-(4-methylphenyl)-6,13-dioxo-13H-[1,4]diazocino[2,1-g][1,7]naphthyridine] displayed a melting point of 227 to 228 °C.
The molecule `C[C@@H]1COc2nccc(-c3ccccc3)c2C(=O)N(Cc2ccccc2)C1` [Reference Example 123, (S)-5-Benzyl-2,3,4,5-tetrahydro-3-methyl-6-oxo-7-phenyl-6H-pyrido[2,3-b][1,5]oxazocine] displayed a melting point of 139 to 141 °C.
Consider `CNC(=O)c1cc(-c2ccccc2)c2c(n1)OCCN(Cc1cc(C(F)(F)F)cc(C(F)(F)F)c1)C2=O` [Reference Example 112, 4-[3,5-Bis(trifluoromethyl)benzyl]-N-methyl-2,3,4,5-tetrahydro-5-oxo-6-phenylpyrido[3,2-f][1,4]oxazepine-8-carboxamide], for which the melting point was 145 °C (dec.).
`C[C@@H]1CCn2c(c(-c3ccc(Cl)c(Cl)c3)c3cccnc3c2=O)C(=O)N(Cc2cc(C(F)(F)F)cc(C(F)(F)F)c2)C1` [Example 7] gave an IC50 at substance P receptor of 830 pM.
On the same count and under the same terms, for `Cc1ccc(-c2c3n(c(=O)c4ncccc24)CC[C@@H](C)CN(Cc2cc(OC(C)C)cc(OC(C)C)c2)C3=O)cc1` [Example 4, (9R)-7-[3,5-di(1-methylethyloxy)benzyl)-6,7,8,9,10,11-hexahydro-9-methyl-5-(4-methylphenyl)-6,13-dioxo-13H-[1,4]diazosino[2,1-g[]1,7]napththylidine] the value was 170 pM.
`Cc1cnc2c(c1-c1ccccc1)C(=O)N(Cc1cc(C(F)(F)F)cc(C(F)(F)F)c1)CCN(C)C2=O` [Reference Example 104, 6-[3,5-Bis(trifluoromethyl)benzyl]-5,6,7,8,9,10-hexahydro-3,9-dimethyl-5,10-dioxo-4-phenylpyrido[2,3-f][1,4]diazocine]: the melting point is 203 to 205 °C.
As to `Cc1ccc(-c2c3n(c(=O)c4ncccc24)CC[C@@H](C)CN(Cc2cc(C(F)(F)F)cc(C(F)(F)F)c2)C3=O)cc1` [Reference Example 72, (9R)-7-[3,5-Bis(trifluoromethyl)benzyl]-6,7,8,9,10,11-hexahydro-9-methyl-5-(4-methylphenyl)-6,13-dioxo-13H-[1,4]diazocino[2,1-g][1,7]naphthyridine], the melting point lay within 226 to 228 °C.
In turn, `CN1CCN(Cc2cc(-c3ccccc3)c3c(n2)OCCN(Cc2cc(C(F)(F)F)cc(C(F)(F)F)c2)C3=O)CC1` [Reference Example 101, 4-[3,5-Bis(trifluoromethyl)benzyl]-2,3,4,5-tetrahydro-8-(N-methylpiperazinomethyl)-5-oxo-6-phenylpyrido[3,2-f][1,4]oxazepine] returned a 50% inhibitory concentration (IC50) on substance P receptor of 200 pM.
Molecule `COc1ccc(CN2CCOc3nccc(-c4ccccc4)c3C2=O)cc1OC` [Reference Example 120, 4-(3,4-Dimethoxybenzyl)-2,3,4,5-tetrahydro-5-oxo-6-phenylpyrido[3,2-f][1,4]oxazepine] displayed a melting point of 175 to 176 °C.
